Results reported in ChEMBL document CHEMBL1150191, “Isolation of Eupalmerin, a Minor Cembranoid Diterpene from the Caribbean Gorgonian Eunicea mammosa” (J Nat Prod, 1991).
In brackets after ≈: the same amount, converted by molar mass.

Experiment: Cytotoxicity against CHOK1 cells
Format: cell-based, Cricetulus griseus
Settings: chinese hamster, CHO-K1 cells; read-out: ED50 (the source's name)

Compound C=C1C(=O)O[C@H]2[C@H](O)[C@@H](C)CCC/C(C)=C/CC[C@@]3(C)O[C@H]3C[C@@H]12 [EUPALMERIN] has a CC50 of 5.46 µg/mL (≈ 16.3 µM).
